Experimental findings from patent publication US10017459B2, “β-substituted β-amino acids and analogs as chemotherapeutic agents and uses thereof” (Quadriga Biosciences, Inc., priority 2015, dated 2018) are described below.

One series has as its target T1, hLAT1 (Homo sapiens, UniProt Q01650).
T1 construct: expressed in transfected cells; host or cells: LLCPK cells, tetracycline/doxycycline-inducible, boosted with sodium butyrate
Nature of the series: LAT1 uptake inhibition assay, radiolabeled competition uptake with [3H]-Gabapentin. It counts as cell-based.

For the next series, the target named is T2, hLAT2 (Homo sapiens, UniProt Q9UHI5).
T2 construct: expressed in transfected cells; host or cells: KB or LLCPK cells, tetracycline/doxycycline-inducible
T2 sequence (Q9UHI5 1-535): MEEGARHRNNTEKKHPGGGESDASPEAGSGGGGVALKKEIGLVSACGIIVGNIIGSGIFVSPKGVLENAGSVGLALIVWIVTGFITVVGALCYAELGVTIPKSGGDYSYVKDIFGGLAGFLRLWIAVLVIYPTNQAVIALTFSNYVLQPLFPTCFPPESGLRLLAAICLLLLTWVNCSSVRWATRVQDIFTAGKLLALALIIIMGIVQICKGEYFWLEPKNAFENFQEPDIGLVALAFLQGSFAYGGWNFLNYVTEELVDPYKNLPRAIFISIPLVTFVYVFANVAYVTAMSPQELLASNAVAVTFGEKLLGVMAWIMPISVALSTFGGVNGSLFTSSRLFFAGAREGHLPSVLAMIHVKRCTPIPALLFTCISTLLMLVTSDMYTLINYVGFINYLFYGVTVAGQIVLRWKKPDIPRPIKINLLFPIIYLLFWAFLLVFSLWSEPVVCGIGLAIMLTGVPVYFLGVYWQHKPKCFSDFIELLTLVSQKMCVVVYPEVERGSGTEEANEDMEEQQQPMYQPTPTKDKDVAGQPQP
T2 sequence (P08195 1-630 isoform P08195-1 partner): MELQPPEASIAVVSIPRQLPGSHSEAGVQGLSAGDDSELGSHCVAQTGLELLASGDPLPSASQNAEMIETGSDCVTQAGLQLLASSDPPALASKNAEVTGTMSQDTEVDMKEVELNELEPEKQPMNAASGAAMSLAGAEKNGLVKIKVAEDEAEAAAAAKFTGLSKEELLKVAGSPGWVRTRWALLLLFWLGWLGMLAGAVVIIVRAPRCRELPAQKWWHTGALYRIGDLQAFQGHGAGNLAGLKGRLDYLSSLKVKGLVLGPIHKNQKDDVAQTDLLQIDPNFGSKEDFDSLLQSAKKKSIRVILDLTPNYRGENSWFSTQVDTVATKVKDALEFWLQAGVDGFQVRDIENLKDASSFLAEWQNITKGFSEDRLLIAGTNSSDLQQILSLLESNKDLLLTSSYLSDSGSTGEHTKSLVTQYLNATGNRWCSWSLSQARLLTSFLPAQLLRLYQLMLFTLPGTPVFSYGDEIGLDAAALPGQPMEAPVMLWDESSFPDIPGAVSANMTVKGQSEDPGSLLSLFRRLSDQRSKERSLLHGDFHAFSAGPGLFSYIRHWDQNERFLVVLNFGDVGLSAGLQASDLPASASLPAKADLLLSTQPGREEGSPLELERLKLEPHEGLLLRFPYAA
Nature of the series: LAT2 uptake inhibition assay, radiolabeled competition uptake with [3H]-leucine. It counts as cell-based.

Series [1] concerns LLCPK cells conditionally expressing hLAT1. Nature of the series: cells. The note with it: 0.5 h, read-out: LC50, concentration of test compound at which the percent surviving cells was 50%.
A further series has as its system U251 MG. Nature of the series: Orthotopic glioblastoma study (Example 84). As to conditions: at a dose of 10 mg/kg, IV. Format: in vivo, mouse. Here is the method:
The efficacy of compounds provided by the present disclosure was evaluated using an orthotopic luciferase human glioblastoma model—U251 MG. Human glioblastoma cells were intracolonically injected (3×10^5 cells/3 μL) into athymic mice (female, 4-5 weeks-old, nu/un homozygous). Treatment began when the BLI reached a log-phase growth, at about 14 days after injection. Ten mice were assigned to each arm of the study. The mice were dosed with vehicle (IP, once weekly for 4 weeks), compound (5) (5 mg/kg, IV once weekly for 4 weeks), compound (5) (10 mg/kg, IV once weekly for 4 weeks), compound (40) (10 mg/kg, IV once weekly for 4 weeks), or compound (50) (20 mg/kg, IV single dose). The tumor volume was measured using bioluminescence imaging.

In another series the test system is HCT116. Kind of series: In vitro cytotoxicity, HCT116. Format: cell-based. As to conditions: Homo sapiens, HCT-116, read-out: IC50 (in vitro toxicity).
The test system of the next series is MV411. Nature of the series: cells. Format: cell-based. As to conditions: Homo sapiens, MV4-11, read-out: IC50 (in vitro toxicity).
Series [2] deals with Human prostate cancer PC3 cells. As to conditions: mouse, in vivo.
The next series concerns G55. Kind of series: cells. As to conditions: read-out: IC50 (in vitro toxicity). Format: cell-based.
In another series the test system is Raji. Kind of series: cells. It counts as cell-based. The note with it: Homo sapiens, read-out: IC50 (in vitro toxicity).
The subject of another series is U251. Kind of series: cells. As to conditions: Homo sapiens, U-251, read-out: IC50 (in vitro toxicity). Format: cell-based.
The test system of a further series is D283. Nature of the series: cells. Format: cell-based. As to conditions: D283, read-out: IC50 (in vitro toxicity).
The next series concerns MDA-MB-231. Nature of the series: cells. As to conditions: Homo sapiens, MDA-MB-231, read-out: IC50 (in vitro toxicity). Format: cell-based.
The next series relates to DBRTG. Kind of series: cells. It counts as cell-based. As to conditions: read-out: IC50 (in vitro toxicity).
In another series the test system is PC3. Nature of the series: cells. It counts as cell-based. The note with it: Homo sapiens, PC-3, read-out: IC50 (in vitro toxicity).
Another series deals with 42MGBA. Nature of the series: cells. Format: cell-based. As to conditions: read-out: IC50 (in vitro toxicity).
Another series has as its system LN229. Kind of series: cells. The note with it: Homo sapiens, LN-229, read-out: IC50 (in vitro toxicity). It counts as cell-based.
The subject of the next series is MCF7. Nature of the series: In vitro cytotoxicity, MCF7. It counts as cell-based. The note with it: Homo sapiens, MCF7, read-out: IC50 (in vitro toxicity).
Setting [3] is: LAT1-expressing cells, increasing concentration of test compound, read-out: IC50, concentration of test compound at which the [3H]-GP was inhibited by 50%.
Setting [4] is: KB cells, read-out: IC50, concentration of test compound at which the [3H]-Leu was inhibited by 50%.

Each structure is given as a SMILES string. Like-named read-outs stand apart in the source and are kept apart here. Some results are limits rather than exact numbers.

T1 sequence (Q01650 whole entry, one chain of several): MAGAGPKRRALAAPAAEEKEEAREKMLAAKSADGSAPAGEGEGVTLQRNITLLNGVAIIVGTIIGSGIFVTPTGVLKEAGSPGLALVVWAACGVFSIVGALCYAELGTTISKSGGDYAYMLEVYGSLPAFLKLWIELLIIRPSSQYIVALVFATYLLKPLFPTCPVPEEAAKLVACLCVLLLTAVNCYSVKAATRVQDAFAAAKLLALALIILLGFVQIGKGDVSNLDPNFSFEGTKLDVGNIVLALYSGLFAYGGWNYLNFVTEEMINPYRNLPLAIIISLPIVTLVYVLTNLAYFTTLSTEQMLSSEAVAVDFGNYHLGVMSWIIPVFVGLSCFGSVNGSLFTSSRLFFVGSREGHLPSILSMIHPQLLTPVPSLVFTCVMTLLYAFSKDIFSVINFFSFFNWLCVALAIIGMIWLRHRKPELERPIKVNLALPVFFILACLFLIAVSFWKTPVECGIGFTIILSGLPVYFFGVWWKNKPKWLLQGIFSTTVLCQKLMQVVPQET

Take `Cc1ccc(C(=O)N[C@@H](CC(C)C)C(=O)C2(C)CO2)cc1C[C@H](N)CC(=O)O` (stereo in doubt) [Compound 63, (3S)-3-amino-4-[2-methyl-5-[[(1S)-3-methyl-1-[(2R)-2-methyloxirane-2-carbonyl]butyl]carbamoyl]phenyl]butanoic acid]: the IC50 on hLAT1 (setting [3]) and at hLAT2 (setting [4]) was less than 100 µM each time.
As for `Cc1ccc(N(CCCl)CCCl)cc1CC(N)CC(=O)O` (racemic) [Compound 3, 3-Amino-4-[5-[bis(2-chloroethyl)amino]-2-methyl-phenyl]butanoic Acid], the CC50 in series [1] was less than 1 µM.
Consider `Cc1ccc(N(CCO)CCCl)cc1C[C@H](N)CC(=O)O` [Compound 58, (3S)-3-amino-4-[5-(2-chloroethyl(2-hydroxyethyl)amino)-2-methyl-phenyl]butanoic acid], for which the IC50 on hLAT1 was less than 100 µM.
Consider `Cc1ccc(CBr)cc1C[C@H](N)CC(=O)O` [Compound 57, (3S)-3-amino-4-[5-(bromomethyl)-2-methyl-phenyl]butanoic acid], for which the IC50 on hLAT1 (setting [3]) and at hLAT2 (setting [4]) was less than 100 µM throughout.
In the case of `CC(C)Oc1ccc(N(CCCl)CCCl)cc1C[C@H](N)CC(=O)O` [Compound 43, (3S)-3-amino-4-[5-[bis(2-chloroethyl)amino]-2-isopropoxy-phenyl]butanoic acid], the CC50 in [1] is less than 1 µM. Also, the IC50 on hLAT1 and on hLAT2 was less than 100 µM throughout.
Regarding `Cc1ccc(COC(=O)N(CCCl)CCCl)cc1C[C@H](N)CC(=O)O` [Compound 30, (3S)-3-Amino-4-[5-[bis(2-chloroethyl)carbamoyloxymethyl]-2-methyl-phenyl]butanoic Acid], the IC50 on hLAT1 was less than 100 µM.
`CCOc1ccc(N(CCCl)CCCl)cc1C[C@H](N)CC(=O)O` [Compound 42, (3S)-3-amino-4-[5-[bis(2-chloroethyl)amino]-2-ethoxy-phenyl]butanoic acid]: the CC50 in series [1] is less than 1 µM. Besides, the IC50 at hLAT1 and on hLAT2 was less than 100 µM throughout.
With `COc1ccc(N(CCO)CCCl)cc1C[C@H](N)CC(=O)O` [Compound 60, (3S)-3-amino-4-[5-(2-chloroethyl (2-hydroxyethyl)amino)-2-methoxy-phenyl]butanoic acid], the IC50 on hLAT1 and on hLAT2 was less than 100 µM each time.
For the compound `Cc1ccc(N(CCCl)CCCl)cc1NC(=O)[C@H](N)CC(=O)O` [Compound 22, (3R)-3-Amino-4-[[5-[bis(2-chloroethyl)amino]-2-methyl-phenyl]amino]-4-oxo-butanoic Acid], the CC50 in [1] is less than 1 µM. This compound also showed an IC50 at hLAT2 of less than 100 µM.
Compound `N[C@@H](COc1ccc(N(CCCl)CCCl)cc1)CC(=O)O` [Compound 69, (3R)-3-amino-4-[4-[bis(2-chloroethyl)amino]phenoxy]butanoic acid] had an IC50 at hLAT1 of less than 100 µM.
`Cc1ccc(CON(CCCl)CCCl)cc1C[C@H](N)CC(=O)O` [Compound 32, (3S)-3-Amino-4-[5-[bis(2-chloroethyl)aminooxymethyl]-2-methyl-phenyl]butanoic Acid]: the IC50 on hLAT1 and at hLAT2 was less than 100 µM throughout.
For the compound `Cc1cc(N(CCCl)CCCl)ccc1OC[C@H](N)CC(=O)O` [Compound 27, (3R)-3-Amino-4-[4-[bis(2-chloroethyl)amino]-2-methyl-phenoxy]butanoic Acid], the CC50 in series [1] is less than 1 µM.
`Cc1ccc(OC(=O)N(CCCl)CCCl)cc1C[C@H](N)CC(=O)O` [Compound 29, (3S)-3-Amino-4-[5-[bis(2-chloroethyl)carbamoyloxy]-2-methyl-phenyl]butanoic Acid]: the IC50 at hLAT1 was less than 100 µM.
`N[C@H](CC(=O)O)Cc1cc(CON(CCCl)CCCl)ccc1[N+](=O)[O-]` [Compound 45, (3S)-3-amino-4-[5-[bis(2-chloroethyl)aminooxymethyl]-2-nitro-phenyl]butanoic acid]: the IC50 on hLAT1 and on hLAT2 was less than 100 µM each time.
For `N[C@H](CC(=O)O)Cc1cc(N(CCCl)CCCl)ccc1N(CCCl)CCCl` [Compound 53, (3S)-3-amino-4-[2,5-bis[bis(2-chloroethyl)amino]phenyl]butanoic acid], the CC50 in [1] is less than 1 µM. This compound yielded an IC50 on hLAT2 of less than 100 µM.
Taken in the same sequence, the figures for `N[C@H](CC(=O)O)Cc1cc(CO)ccc1N(CCCl)CCCl` [Compound 52, (3S)-3-amino-4-[2-[bis(2-chloroethyl)amino]-5-(hydroxymethyl)phenyl]butanoic acid] were less than 1 µM and less than 100 µM.
As to `CCc1ccc(N(CCCl)CCCl)cc1C[C@H](N)CC(=O)O` [Compound 40, (3S)-3-amino-4-[5-[bis(2-chloroethyl)amino]-2-ethyl-phenyl]butanoic acid], the “glioblastoma tumor growth (bioluminescence imaging)” value with U251 MG is recorded as “suppressed glioblastoma tumor growth”. Besides, the IC50 in the series on HCT116, in the series with MV411, with G55, in the series on Raji, with U251 and in the series with D283 was less than 100 µM in each case. Moreover, the IC50 at hLAT1, with MDA-MB-231, in the series with DBRTG, with PC3, in the series on 42MGBA and in the series with LN229 was less than 100 µM in each case. Moreover, the IC50 on hLAT2 and in the series with MCF7 was less than 100 µM in each case. Moreover, the body weight entry in series [2] is “maintained weight”. In addition, in series [2], the myelosuppression entry is “not dectected”. Also, the tumor growth suppression entry in [2] is given as “dose-dependent tumor growth suppression”. In addition, the CC50 in series [1] is less than 1 µM.
`N[C@@H](COc1cccc(N(CCCl)CCCl)c1)CC(=O)O` [Compound 68, (3R)-3-amino-4-[3-[bis(2-chloroethyl)amino]phenoxy]butanoic acid] displayed an IC50 on hLAT1 of less than 100 µM.
`Cc1ccc(N(CCBr)CCOS(C)(=O)=O)cc1C[C@H](N)CC(=O)O` [Compound 20, (3S)-3-Amino-4-[5-(2-bromoethyl(2-methylsulfonyloxyethyl)amino)-2-methyl-phenyl]butanoic Acid] registered an IC50 on hLAT2 of less than 100 µM.
On the same count and under the same terms, with `Cc1ccc(NCCCl)cc1C[C@H](N)CC(=O)O` [Compound 54, (3S)-3-amino-4-[5-(2-chloroethylamino]-2-methyl-phenyl]butanoic acid] the figure was less than 100 µM.
